Experimental data taken from US5714361A, “Phosphatase/phosphodiesterase enzyme inhibitors and methods” (priority 1994, dated 1998).

Experiments:
[1] = target: human prostatic acid phosphatase (PAP) (Homo sapiens, UniProt P15309); assay: Time-dependent inactivation of prostatic acid phosphatase (residual activity with PNPP); format: biochemical; conditions: for time-dependent inactivation of PAP: incubation with PAP (2 μg/mL), 100 mM sodium acetate buffer pH 5.0, 25° C.; for protection of PAP against inactivation by FMPP: competitive inhibitors of PAP added
Experimental: Reactions were performed by incubating 1 or 9 with PAP (2 μg/mL) in 100 mM sodium acetate buffer pH 5.0 at 25° C. Residual PAP activity was determined by removing 20 μL aliquots and adding them to a 1 mL solution of 3.0 mM p-nitrophenyl phosphate (PNPP) in 100 mM sodium acetate buffer pH 5.0. After 5 minutes in PNPP, the reactions were quenched with 100 μL of 1.25N NaOH. p-Nitrophenoxide concentration was quantitated from the absorbance at 405 nm, using an extinction coefficient of 18,000 M-1 cm-1. (A) Residual PAP activity after incubation with varying concentrations of 1; 5.0 mM (filled circles), 500 μM (open squares), 125 μM (open triangles), 70 μM (filled diamonds), and 50 μM (open circles). (B) Residual PAP activity after treatment with 6.6 mM FMPP (open triangles), or 23 mM of the phosphonate (15 X Ki) (closed circles).
In this experimental, human prostatic acid phosphatase (PAP) was used as a model enzyme. […] This phosphatase is an important diagnostic marker for prostate cancer, and there is evidence that it may be involved in the regulation of androgen receptor activity in prostate cells.

YOP 51 = YOP 51 (Yersinia enterocolitica, UniProt P15273); assay: Time-dependent inactivation testing with YOP 51; format: biochemical; conditions: incubated in a fashion similar to FIG. 1
Sequence of YOP 51 (P15273 whole entry): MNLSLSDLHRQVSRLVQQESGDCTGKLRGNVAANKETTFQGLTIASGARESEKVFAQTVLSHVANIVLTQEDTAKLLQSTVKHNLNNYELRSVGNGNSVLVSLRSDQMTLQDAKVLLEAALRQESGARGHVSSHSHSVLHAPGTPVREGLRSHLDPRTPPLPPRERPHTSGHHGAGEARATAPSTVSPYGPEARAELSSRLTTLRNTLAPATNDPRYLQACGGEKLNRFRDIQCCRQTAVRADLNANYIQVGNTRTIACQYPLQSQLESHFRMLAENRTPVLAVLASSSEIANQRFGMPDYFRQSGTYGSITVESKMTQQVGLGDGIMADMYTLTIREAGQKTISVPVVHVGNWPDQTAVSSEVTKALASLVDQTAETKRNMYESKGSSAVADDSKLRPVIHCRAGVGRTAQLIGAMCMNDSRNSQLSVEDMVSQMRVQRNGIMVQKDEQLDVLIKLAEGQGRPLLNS

Sequence of human prostatic acid phosphatase (PAP) (P15309 33-386): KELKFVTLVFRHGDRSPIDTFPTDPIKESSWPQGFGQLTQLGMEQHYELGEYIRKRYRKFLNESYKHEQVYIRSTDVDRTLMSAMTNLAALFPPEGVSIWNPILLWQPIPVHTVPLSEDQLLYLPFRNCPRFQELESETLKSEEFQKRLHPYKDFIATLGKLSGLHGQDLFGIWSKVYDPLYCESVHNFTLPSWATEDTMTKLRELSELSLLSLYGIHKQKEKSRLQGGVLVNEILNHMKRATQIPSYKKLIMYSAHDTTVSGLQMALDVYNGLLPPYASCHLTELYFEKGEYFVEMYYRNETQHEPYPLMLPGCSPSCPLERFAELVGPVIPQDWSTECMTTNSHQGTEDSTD

O=P(O)(O)Oc1ccc(CBr)cc1 [bromo analogue of FMPP] was tested, and the “time-dependent inactivation of PAP” value [1] was “proved to inactivate the PAP enzyme”.

For C=C(Br)OP(=O)(OCC)OCC [XVI, Diethyl 1-Bromovinyl Phosphate], the “inactivation of YOP 51” value (YOP 51) was “succesful inactivation of the enzyme”.

With O=C(O)C(O)C(O)C(=O)O (centres unmarked) [tartaric acid, reference compound] the “protection of PAP against inactivation by FMPP” value [1] was “protect against inactivation”.

For O=[N+]([O-])c1cc(CCl)ccc1OP(=O)(O)O [ortho-nitro chloro analogue of FMPP], the “potency of PAP inactivation relative to FMPP or its analogues” value [1] was “substantially greater potency” and the “time-dependent inactivation of PAP” value [1] was “succesfully inactivated the PAP enzyme”.

With O=P(O)(O)Oc1ccc(CCl)cc1 [chloro analogue of FMPP] the “time-dependent inactivation of PAP” value [1] was “proved to inactivate the PAP enzyme”.

Work on O=P(O)(O)Oc1ccc(CF)cc1 [FMPP, 4-(fluoromethyl)phenyl phosphate] yielded a KI (inactivation) ([1]; read-out: Ki (saturation kinetics of the inactivation process), purified PAP) of 150 µM.

For O=P(O)(O)O [inorganic phosphate, reference compound], the “protection of PAP against inactivation by FMPP” value [1] was “protect against inactivation”.
